Assay results: patent US20210355106A1, “NEW AMINO-PYRIMIDONYL-PIPERIDINYL DERIVATIVES, A PROCESS FOR THEIR PREPARATION AND PHARMACEUTICAL COMPOSITIONS CONTAINING THEM” (LES LABORATOIRES SERVIER, priority 2018, published 2021)

Legend:
[1] = test system: Z138 mantle cell lymphoma tumour cell lines; test: In vitro cytotoxicity, MTT assay; format: cell-based; details: Homo sapiens, Z-138; Z138 cells, exposed to the test compounds for 96 hours
Outline: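 Z138 cells exposed to compounds for 96 hours, then MTT added for 4 hours. Formazan absorbance at 540 nm serves as the measure of viable cell number.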

USP7 = target: T1, USP7 (Homo sapiens, UniProt Q93009, C315A); test: Inhibition of USP7 by Fluorescence Intensity (FLINT) readings, Ubiquitin-Rhodamine-110 substrate; format: biochemical; details: 0.25 nM His-His-USP7 (aa208-560), 60 minutes at 30° C. preincubation; Ki determined from IC50 according to Cer et al.
T1 construct: 0.25 nM His-His-USP7 (aa208-560, |C315A|) was incubated with compound; His-His (N)
Outline: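 His-tagged USP7 (aa208-560, C315A), 0.25 nM, preincubated with compound 60 min at 30 °C in 100 mM Bicine pH 8.0, 0.01% Triton X-100, 1 mM TCEP, 10% DMSO. Ubiquitin-Rhodamine-110 (50 nM or 4 μM) added; kinetic fluorescence (Ex 485/Em 535 nm) over 21 min; IC50 from 11-point curves, Ki derived from IC50.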

T1 sequence (Q93009 208-560 C315A): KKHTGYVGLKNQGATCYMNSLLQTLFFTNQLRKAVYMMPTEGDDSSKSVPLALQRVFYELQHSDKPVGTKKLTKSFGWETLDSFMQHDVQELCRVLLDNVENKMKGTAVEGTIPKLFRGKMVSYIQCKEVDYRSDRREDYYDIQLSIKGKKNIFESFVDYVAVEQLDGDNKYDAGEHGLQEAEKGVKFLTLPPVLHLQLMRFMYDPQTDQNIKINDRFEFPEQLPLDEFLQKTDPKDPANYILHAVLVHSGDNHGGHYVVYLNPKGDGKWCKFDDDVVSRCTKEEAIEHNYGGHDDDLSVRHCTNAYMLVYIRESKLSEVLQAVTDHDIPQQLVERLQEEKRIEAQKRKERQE

SMILES	Ki (USP7)	IC50 [1]
COc1cc(Cl)cc(Oc2ncn(CC3(O)CCN(C(=O)[C@@H]4CCN(C(=O)c5sc(-c6ccc(C)nc6)nc5C)C[C@H]4c4ccccc4)CC3)c(=O)c2N)c1 [Example 23, 5-amino-6-(3-chloro-5-methoxyphenoxy)-3-((4-hydroxy-1-((3R,4R)-1-[4-methyl-2-(6-methylpyridin-3-yl)-1,3-thiazole-5-carbonyl]-3-phenylpiperidine-4-carbonyl}piperidin-4-yl)methyl]pyrimidin-4(3/I)-one]	7.46 nM	2.77 nM
Cc1ccc(-c2sc(C(=O)N3CC[C@@H](C(=O)N4CCC(O)(Cn5cnc(Oc6ccc(F)cc6)c(N)c5=O)CC4)[C@H](c4ccccc4)C3)c3c2OCCO3)cn1 [Example 68, 5-amino-6-(4-fluorophenoxy)-3-[(4-hydroxy-1-{(3R,4R)-1-[7-(6-methylpyridin-3-yl)-2,3-dihydrothieno[3,4-b][1,4]dioxine-5-carbonyl]-3-phenylpiperidine-4-carbonyl]piperidin-4-yl)methyl]pyrimidin-4(3H)-one]	4 nM	6.67 nM
Nc1c(Oc2ccccc2)ncn(CC2(O)CCN(C(=O)[C@@H]3CCN(C4(c5ccccc5F)COC4)C[C@H]3c3ccccc3)CC2)c1=O [Example 114]	66 nM	22 nM
Cc1ccc(-c2ncc(C(=O)N3CC[C@@H](C(=O)N4CCC(O)(Cn5cnc(Oc6ccc(F)cc6)c(N)c5=O)CC4)[C@H](c4ccccc4)C3)n2C)cn1 [Example 96, 5-amino-6-(4-fluorophenoxy)-3-[(4-hydroxy-1-{(3R,4R)-1-[1-methyl-2-(6-methylpyridin-3-yl)-1H-imidazole-5-carbonyl]-3-phenylpiperidine-4-carbonyl}piperidin-4-yl)methyl]pyrimidin-4(3H)-one]	7.21 nM	27.3 nM
Cc1ccc(-c2cc(F)c(C(=O)N3CC[C@@H](C(=O)N4CCC(O)(Cn5cnc(Oc6ccc(F)cc6)c(N)c5=O)CC4)[C@H](c4ccccc4)C3)s2)cn1 [Example 40]	4.19 nM	1.7 nM
Nc1c(Oc2ccc(F)cc2)ncn(CC2(O)CCN(C(=O)[C@@H]3CCN(C(=O)Nc4nc5ccccc5s4)C[C@H]3c3ccccc3)CC2)c1=O [Example 87, (3R,4R)-4-[4-[[5-amino-4-(4-fluorophenoxy)-6-oxo-pyrimidin-1-yl]methyl]-4-hydroxy-piperidine-1-carbonyl]-N-(1,3-benzothiazol-2-yl)-3-phenyl-piperidine-1-carboxamide]	88 nM	45 nM
COc1ccccc1C1(N2CC[C@@H](C(=O)N3CCC(O)(Cn4cnc(Oc5ccc(F)cc5)c(N)c4=O)CC3)[C@H](c3ccccc3)C2)COC1 [Example 139, 5-amino-6-(4-fluorophenoxy)-3-[[4-hydroxy-1-[(3R,4R)-1-[3-(2-methoxyphenyl)oxetan-3-yl]-3-phenyl-piperidine-4-carbonyl]-4-piperidyl]methyl]pyrimidin-4-one]	19 nM	24.6 nM
Cc1ccc(-c2nc(C)c(C(=O)N3CC[C@@H](C(=O)N4CCC(O)(Cn5cnc(Oc6cccc(C(F)(F)F)c6)c(N)c5=O)CC4)[C@H](c4ccccc4)C3)s2)cn1 [Example 26]	6.1 nM	20 nM
Nc1c(Oc2ccc(F)cc2)ncn(CC2(O)CCN(C(=O)[C@@H]3CCN(C(=O)c4cccc5cnccc45)C[C@H]3c3ccccc3)CC2)c1=O [Example 102, 5-amino-6-(4-fluorophenoxy)-3-({4-hydroxy-1-[(3R,4R)-1-(isoquinoline-5-carbonyl)-3-phenylpiperidine-4-carbonyl]piperidin-4-yl}methyl)pyrimidin-4(3H)-one]	4.1 nM	9.31 nM
Cc1ccc(-c2cncc(C(=O)N3CC[C@@H](C(=O)N4CCC(O)(Cn5cnc(Oc6ccc(F)cc6)c(N)c5=O)CC4)[C@H](c4ccccc4)C3)c2)cn1 [Example 34, 5-amino-6-(4-fluorophenoxy)-3-({4-hydroxy-1-[(3R,4R)-1-(6′-methyl[3,3′-bipyridine]-5-carbonyl)-3-phenylpiperidine-4-carbonyl]piperidin-4-yl}methyl)pyrimidin-4(3H)-one]	3.58 nM	11 nM

More lines, main results first:

Ki (USP7)	SMILES	IC50 [1]
16.9 nM	Nc1c(Oc2ccc(F)cc2)ncn(C[C@@]2(O)CCN(C(=O)[C@@H]3CCN(Cc4ccnc(Cl)n4)C[C@H]3c3ccccc3)CC2(F)F)c1=O [Example 160]	6.47 nM
99.4 nM	Nc1c(Oc2ccc(F)cc2)ncn(C[C@@]2(O)CCN(C(=O)[C@@H]3CCNC[C@H]3c3ccccc3)CC2(F)F)c1=O [Example 11, 5-amino-3-[[(4S)-3,3-difluoro-4-hydroxy-1-[(3R,4R)-3-phenylpiperidine-4-carbonyl]-4-piperidyl]methyl]-6-(4-fluorophenoxy)pyrimidin-4-one]	390 nM
3.05 nM	Nc1c(Oc2ccc(F)cc2)ncn(CC2(O)CCN(C(=O)[C@@H]3CCN(C(=O)c4cc(F)cc(Br)c4)C[C@H]3c3ccccc3)CC2)c1=O [Example 98]	7 nM
15 nM	Nc1c(Oc2ccc(F)cc2)ncn(C[C@@]2(O)CCN(C(=O)[C@@H]3CCN(C(=O)c4sc(I)cc4F)C[C@H]3c3ccccc3)CC2(F)F)c1=O [Example 104, 5-amino-3-[[(4S)-3,3-difluoro-1-[(3R,4R)-1-(3-fluoro-5-iodo-thiophene-2-carbonyl)-3-phenyl-piperidine-4-carbonyl]-4-hydroxy-4-piperidyl]methyl]-6-(4-fluorophenoxy)pyrimidin-4-one]	37.2 nM
37 nM	COc1cc(Oc2ncn(C[C@@]3(O)CCN(C(=O)[C@@H]4CCN(Cc5cnc(C)cn5)C[C@H]4c4ccccc4)CC3(F)F)c(=O)c2N)ccc1Cl [Example 183, 5-amino-6-(4-chloro-3-methoxy-phenoxy)-3-[[(4S)-3,3-difluoro-4-hydroxy-1-[(3R,4R)-1-[(5-methylpyrazin-2-yl)methyl]-3-phenyl-piperidine-4-carbonyl]-4-piperidyl]methyl]pyrimidin-4-one]	9.5 nM
1.53 nM	Cc1ccc(-c2nc(C)c(C(=O)N3CC[C@@H](C(=O)N4CC[C@](O)(Cn5cnc(Oc6ccccc6)c(N)c5=O)C(F)(F)C4)[C@H](c4ccccc4)C3)s2)cn1 [Example 119]	4.3 nM
6.4 nM	Cc1nc(-c2ccc(C(F)(F)F)nc2)sc1C(=O)N1CC[C@@H](C(=O)N2CC[C@](O)(Cn3cnc(Oc4ccc(F)cc4)c(N)c3=O)C(F)(F)C2)[C@H](c2ccccc2)C1 [Example 103]	6.63 nM
54.1 nM	COc1cc(Oc2ncn(C[C@@]3(O)CCN(C(=O)[C@@H]4CCN(Cc5ncccn5)C[C@H]4c4ccccc4)CC3(F)F)c(=O)c2N)ccc1F [Example 215, 5-amino-3-[[(4S)-3,3-difluoro-4-hydroxy-1-[(3R,4R)-3-phenyl-1-(pyrimidin-2-ylmethyl)piperidine-4-carbonyl]-4-piperidyl]methyl]-6-(4-fluoro-3-methoxy-phenoxy)pyrimidin-4-one]	24.6 nM
30.1 nM	COc1cc(Oc2ncn(C[C@@]3(O)CCN(C(=O)[C@@H]4CCN(Cc5cncc(C)n5)C[C@H]4c4ccccc4)CC3(F)F)c(=O)c2N)ccc1F [Example 218, 5-amino-3-[[(4S)-3,3-difluoro-4-hydroxy-1-[(3R,4R)-1-[(6-methylpyrazin-2-yl)methyl]-3-phenyl-piperidine-4-carbonyl]-4-piperidyl]methyl]-6-(4-fluoro-3-methoxy-phenoxy)pyrimidin-4-one]	11.5 nM
